From patent US20060058320A1, “[1,2,4] Triazolo[1,5-c]pyrimidine derivatives” (KYOWA HAKKO KOGYO CO., LTD., priority 2002, published 2006)
Like-named read-outs stand apart in the source and are kept apart here.

Columns and labels:
adenosine A2A receptor = target: T1, adenosine A2A receptor (Rattus norvegicus, UniProt P30543); experiment: Adenosine A2A receptor binding test (3H-CGS 21680 binding); conditions: for inhibition at 0.1 µM: read-out: A2A Receptor inhibition rate (%) at 10^−7 mol/L
T1 construct: from tissue; host or cells: rat corpus striatum membrane preparation
Method: The test was carried out according to the method of Bruns et al. [Molecular Pharmacology, vol. 29, p.
Rat corpus striatum was suspended in an ice-cold 50 mmol/L tris(hydroxymethyl)aminomethane hydrochloride (referred to as “Tris HCl” hereinafter) buffer (pH 7.7) using a Polytron homogenizer (produced by Kinematica Co.). The suspension was centrifuged (50,000×g, 10 minutes), and the resulting precipitate was again suspended in the same amount of a 50 mmol/L Tris HCl buffer, followed by centrifugation under the same conditions. The resulting finalprecipitate was again suspended in a 50 mmol/L-Tris HCl buffer [containing 10 mmol/L of magnesium chloride and 0.02 unit/mg tissue of adenosine deaminase (produced by Sigma Co.)] so that the tissue concentration was 5 mg (wet weight)/mL.
The radioactivity on the filter was determined with a liquid scintillation counter (produced by Packard Instrument Co.).
In the equation, X represents Amount of binding in the presence of a medicament, Y represents Amount of nonspecific binding, and Z represents Amount of total binding.

[1] = tested on: CGS 21680-induced catalepsy; experiment: Activity on CGS 21680-induced catalepsy; format: in vivo, mice; conditions: 10 mg/kg orally; for Number of animals showing remission: cases with catalepsy score of 4 points or less in 10 cases; for Remission ratio (%) / inhibition in vivo at 10 mg/kg: from total score of test group and control group; for Total score: total catalepsy score of 10 mice (maximum 50 points; 40 points or less = positive), one hour after administration; for inhibition in vivo at 10 mg/kg: Mus musculus, po, read-out: Remission ratio (%)
Summary of the method: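 Male ddY mice, 5 weeks old, ten per group, were dosed orally with compound at 10 mg/kg in 0.3% Tween 80 water, 30 min before CGS 21680 (10 μg/20 μL) was injected into the cerebral ventricle. Catalepsy was scored 1 h after compound dosing by placing forelimbs or hindlimbs on a 4.5 cm stand.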

male ddY mice = experiment: Forced swimming method (measurement of immobility time); format: in vivo; conditions: orally administered, 10 mg/kg, one hour before the test; versus solvent group (Steel-test)
Method: Ten male ddY mice (21 to 26 g in body weight, Japan SLC) per group were used as test animals. During the preliminary feeding period, the animals were bred to be allowed to freely have feed (CRF-1; Oriental Yeast Co., Ltd, Tokyo) and water (tap water) in an animal room at a room temperature for 23±1° C. and a humidity of 55±5%.
Animals showing abnormal reactions in terms of spontaneous activity, myotonia, eyesight and the like were previously excluded. Each test compound was suspended in a 0.3% Tween 80 solution and orally administered one hour before the test. In the negative control group, 10 mL/kg of a 0.3% Tween 80 solution alone was orally administered. The immobility time was measured according to the Porsolt method [Arch. Int. Pharmacodyn., vol. 229, pp. 327-336 (1977)]. Namely, a cylindrical transparent acrylic water tank (10 cm in diameter and 25 cm in height) was filled with water at a temperature between 23±1° C. to a height of 9 cm, and the mice were forced to swim for 6 minutes. When the mice are put into water, they immediately start to swim trying to escape from the tank, but the motion gradually decreases 1 to 2 minutes thereafter. […] In order to reduce the effects of daily rhythm, the test was carried out using 5 of the 10 animals per group in the morning, and the remaining 5 animals in the afternoon. The immobility time was measured by observing 2 animals at the same time without telling the observers distinctions about the control group administered with the solvent alone and doses of the test compounds. Statistical analysis of the results was carried out by a multiple comparison Steel-test between the solvent-administered group and the test compound-administered group.

male SD rats = experiment: Learned helplessness (LH) model; format: in vivo
Method: As test animals, 10 to 15 male SD rats (220 to 320 g in body weight, 7 week age, Charles River Japan, Inc., Atsugi) per group were used. During the preliminary feeding period, the animals were bred to be allowed to freely have feed (CRF-1; Oriental Yeast Co., Ltd, Tokyo) and water (tap water) in an animal room at a room temperature of 22 to 24° C. and a humidity of 50 to 60%. Each test compound was orally administered in a dose of 2 mg/kg 1 hour before RF1 (refer to the contents described below) on the second day of the test.
A shuttle box apparatus (TK-401S; produced by UNICOM, Chiba) was used as a learning experimental apparatus. On the first day, the shuttle box was divided into two rooms by setting a partition at its center, and one rat was put in each of the rooms. […] Although each rat was put in the shuttle box for 50 minutes, the charging time of inescapable shock (IES) was set to 25 minutes by computer control using a random duration time (10 to 90 seconds) and random on-off and off-on (10 to 90 seconds).
On the second day, a shuttle box test was carried out by the method of Maier [J. Comp. Physiol. Psychol., vol. 85, pp. 581-592 (1973)] and the method of Geoffroy and Christensen [Drug Dev. Res., vol. 29, pp. 48-55 (1993)] which were slightly modified. The partition at the center of the shuttle box was removed, and the box was divided into two rooms by a hurdle of 2 cm in height instead of the partition. In the shuttle box test, FRI (an electric shock of 0.6 mA was applied to the rat for 5 seconds unless the rat moved to the other room within 5 seconds after the start of buzzer sounds, and when the rat moved to the other room within 5 seconds after the start of buzzer sounds, the floor shock could be avoided, this operation being carried as one trial and repeated 15 times with an interval of 10 seconds between trials.) was carried out, continuously followed by FR2 (an electric shock of 0.6 mA was applied to the rat for 10 seconds, and then an electric shock of 0.6 mA was applied at intervals of 0.5 second for 10 seconds, this operation being carried out as one trial and repeated 15 times with an interval of 15 seconds between trials). Escape reaction was determined by the escape response calculated by the equation below on the assumption that cases showing two escape latency times of less than 10 seconds in FR2 were regarded as successful escape. Escape response (%)=(Number of trials of successful escape/15)×100
Furthermore, migration (intertrial response %) in the box other than the escape reaction observed during a period between trials (resting time) was used as an index of psychomotor stimulant action, the intertrial response being calculated by the following equation. […]

[2] = test compound 10^−7 mol/L, 3H-CGS 21680 binding, rat corpus striatum

T1 sequence (P30543 whole entry): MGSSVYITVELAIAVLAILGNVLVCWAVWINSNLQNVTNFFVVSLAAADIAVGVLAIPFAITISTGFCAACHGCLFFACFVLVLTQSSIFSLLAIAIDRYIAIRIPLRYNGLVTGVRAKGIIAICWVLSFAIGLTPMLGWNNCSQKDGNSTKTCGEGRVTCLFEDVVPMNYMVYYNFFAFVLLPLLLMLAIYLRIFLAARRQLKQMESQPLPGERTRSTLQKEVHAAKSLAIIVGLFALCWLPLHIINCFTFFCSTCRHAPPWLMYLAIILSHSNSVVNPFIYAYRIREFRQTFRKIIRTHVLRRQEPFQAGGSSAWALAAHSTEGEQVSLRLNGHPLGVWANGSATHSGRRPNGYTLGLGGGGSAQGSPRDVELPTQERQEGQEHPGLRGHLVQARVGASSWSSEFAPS

Compound	Total score [1]	inhibition at 0.1 µM (adenosine A2A receptor; [2])	melting point	further results
5-Amino-2-(2-furyl)[1,2,4]triazolo[1,5-c]pyrimidine-7-carboxylic acid (1,2,3,4-tetrahydroisoquinolyl)amide [Compound 94]	5			A2A Receptor inhibition rate (%) at 10^−7 mol/L (adenosine A2A receptor; [2]): 95%; Number of animals showing remission [1]: 10; Remission ratio (%) [1]: 90%; immobility time (male ddY mice): significant effect of decreasing the immobility time
Nc1nc(-c2ccccc2)cc2nc(-c3ccco3)nn12 [Compound 1, 5-Amino-2-(2-furyl)-7-phenyl[1,2,4]triazolo[1,5-c]pyrimidine]		65%	218.5 to 219 °C	
Nc1nc(-c2ccc(CNCCc3ccccn3)cc2)cc2nc(-c3ccco3)nn12 [Compound 11, 5-Amino-2-(2-furyl)-7-{4-[2-(2-pyridyl)ethylaminomethyl]-phenyl}[1,2,4]triazolo[1,5-c]pyrimidine]		53%	159.8 to 160.5 °C	
CC(=O)c1cc2nc(-c3ccco3)nn2c(N)n1 [Compound 38, 7-Acetyl-5-amino-2-(2-furyl)[1,2,4]triazolo[1,5-c]pyrimidine]		84%	221.2 to 221.5 °C	
Nc1nc(C(=O)c2ccccc2)cc2nc(-c3ccco3)nn12 [Compound 39, 5-Amino-7-benzoyl 2-(2-furyl)[1,2,4]triazolo[1,5-c]-pyrimidine]		66%	229.2 to 229.7 °C	
Nc1nc(C=O)cc2nc(-c3ccco3)nn12 [Compound 41, 5-Amino-7-formyl-2-(2-furyl)[1,2,4]triazolo[1,5-c]pyrimidine]		54%	270 °C (dec.)	
Nc1nc(-c2cccs2)cc2nc(-c3ccco3)nn12 [Compound 51, 5-Amino-2-(2-furyl)-7-(2-thienyl)[1,2,4]triazolo[1,5-c]-pyrimidine]			232.2 to 232.3 °C	inhibition at 0.1 µM (adenosine A2A receptor): 68%
CCCCc1cc2nc(-c3ccco3)nn2c(N)n1 [Compound 64, 5-Amino-7-butyl-2-(2-furyl)[1,2,4]triazolo[1,5-c]pyrimidine]		81%	155 to 155.3 °C	
Nc1nc(CCc2ccccc2)cc2nc(-c3ccco3)nn12 [Compound 66, 5-Amino-2-(2-furyl)-7-(2-phenylethyl)[1,2,4]triazolo[1,5-c]-pyrimidine]		82%	205 to 205.1 °C	
Nc1nc(CCO)cc2nc(-c3ccco3)nn12 [Compound 67, 5-Amino-2-(2-furyl)-7-(2-hydroxyethyl)[1,2,4]triazolo[1,5-c]pyrimidine]		91%	207.2 to 207.8 °C	
Nc1nc(C(=O)NCc2cccnc2)cc2nc(-c3ccco3)nn12 [Compound 83, 5-Amino-2-(2-furyl) [1,2,4]triazolo[1,5-c]pyrimidine-7-carboxylic acid (3-pyridylmethyl)amide]	2			inhibition in vivo at 10 mg/kg [1]: 96%; immobility time (male ddY mice): significant effect of decreasing the immobility time; escape response (male SD rats; IES-loaded rats, 2 mg/kg orally 1 hour before FR1): significantly recover a reduced escape response; intertrial responses (index of psychomotor stimulant action) (male SD rats; versus electric shock loaded control group, 2 mg/kg orally): no difference
CC(C)NC(=O)c1cc2nc(-c3ccco3)nn2c(N)n1 [Compound 89, 5-Amino-2-(2-furyl) [1,2,4]triazolo[1,5-c]pyrimidine-7-carboxylic acid isopropylamide]	8	89%		inhibition in vivo at 10 mg/kg [1]: 84%; immobility time (male ddY mice): significant effect of decreasing the immobility time
COc1ccc(CN(C)C(=O)c2cc3nc(-c4ccco4)nn3c(N)n2)cn1 [Compound 131, 5-Amino-2-(2-furyl)[1,2,4]triazolo[1,5-c]pyrimidine-7-carboxylic acid [N-methyl-N-(6-methoxypyridin-3-ylmethyl)]-amide]	6	51%		inhibition in vivo at 10 mg/kg [1]: 88%
CC1CCN(C(=O)c2cc3nc(-c4ccco4)nn3c(N)n2)CC1 [Compound 143, 5-Amino-2-(2-furyl)[1,2,4]triazolo[1,5-c]pyrimidin-7-yl 4-methylpiperidino ketone]	5	70%		inhibition in vivo at 10 mg/kg [1]: 90%
Nc1nc(C(=O)N2CCC3CCCCC3C2)cc2nc(-c3ccco3)nn12 (stereo not drawn) [Compound 151, 5-Amino-2-(2-furyl)[1,2,4]triazolo[1,5-c]pyrimidin-7-yl cis-decahydroisoquinolyl ketone]	12			A2A Receptor inhibition rate (%) at 10^−7 mol/L (adenosine A2A receptor; [2]): 71%; Number of animals showing remission [1]: 8; Remission ratio (%) [1]: 74%
Nc1nc(C(=O)N2CCCCCC2)cc2nc(-c3ccco3)nn12 [Compound 154, 5-Amino-2-(2-furyl)[1,2,4]triazolo[1,5-c]pyrimidin-7-yl perhydroazepinyl ketone]	16			A2A Receptor inhibition rate (%) at 10^−7 mol/L (adenosine A2A receptor; [2]): 56%; Number of animals showing remission [1]: 7; Remission ratio (%) [1]: 66%
